Experimental data: US20130123108A1, “ACTIVE SUBSTANCE COMPOSITION COMPRISING AT LEAST ONE NITROGEN ATOM-CONTAINING, HYPERBRANCHED POLYMER” (BASF SE, priority 2005, published 2013)
Where two headings read alike, the source gives them in different places.

Experiments:
[1] = Solubility in supersaturated polymer solution, general procedure 3; assay type: physicochemical; conditions: phosphate buffer pH 7.0 with hyperbranched polymer, pH 7, aqueous with cosolvent or surfactant or cyclodextrin, thermodynamic from solid, 0.2 g piroxicam, 20 g phosphate buffer pH 7.0, UV spectroscopy
Description: Approximately 2 g of polymer were weighed out in a glass beaker. Subsequently, 0.2 g of piroxicam or 0.3 g of carbamazepine was each time weighed out into the charge in order to obtain a supersaturated solution. Subsequently, 20 g of phosphate buffer pH 7.0 were added. After filtration, solutions were obtained and their contents of the compound to be dissolved were determined by UV spectroscopy.
Determination of the properties of aqueous active substance compositions according to general procedure 3.

[2] = Solubility from solid dispersion with hyperbranched polymer, general procedure 2; assay type: physicochemical; conditions: for solubility at 24 h: pH 6.8, aqueous with cosolvent or surfactant or cyclodextrin, thermodynamic from solid
Description: 0.5 g of the chosen polymer and 0.1 g of a compound to be dissolved in water were dissolved in approximately 20 ml of N,N-dimethylformamide (DMF). The mixture was stirred and subsequently freed from DMF. A solid dispersion of the chosen copolymer with the chosen compound to be dissolved was obtained. The solid dispersion was added to 100 ml of water (buffered to pH 6.8) and the mixture was stirred for 24 h. After filtration, solutions were obtained and their contents of the compound to be dissolved were determined using HPLC and a UV detector. The literature values for water solubilities of the chosen compounds and the wavelengths of the measurement by UV spectroscopy are listed in table 1:
Determination of the properties of aqueous active substance compositions according to general procedure 2.

[3] = literature values, Table 1; cited from earlier work
[4] = literature values, Table 2; cited from earlier work
[5] = Redispersing of polymer/active substance compositions in buffer, general procedure 1; assay type: physicochemical; design: key: 1: unsatisfactory redispersing, sediment; 2: no ambiguous assessment possible; 3: complete redispersing with clouding (weak to opaque); 4: clear solution; conditions: phosphate buffer pH 6.8
Description: Each time 1 or 10% by weight solutions in N,N-dimethylformamide (DMF) of the hyperbranched polymer to be assessed and also 0.1% by weight solutions of the active substances, likewise in DMF, were provided. Active substance compositions were prepared by mixing in a Tecan pipetting robot with the use of 1 ml flat-bottomed glass vessels from HJ-Bioanalytik (96-well plates in the deep well format). Each time 50 μl of polymer and 500 μl of active substance solution were added to a vessel and the solvent was subsequently removed by drying for 24 hours in a vacuum-drying chamber at 70° C. and a pressure of less than 10 mbar. The test samples were subsequently redispersed by addition of 500 μl of buffer solution (phosphate buffer pH 6.8, 23.05 g of potassium dihydrogenphosphate, 23.30 g of disodium hydrogenphosphate, deionized water made up to 5000 ml) and subsequent shaking for two hours using an HP MTP shaker. The assessment was carried out by measuring the particle size using diffusion light scattering after a resting phase of 2 h.
1=unsatisfactory redispersing, sediment 2=no ambiguous assessment possible 3=complete redispersing with clouding (weak to opaque) 4=clear solution
Determination of the properties of aqueous active substance compositions according to general procedure 1. Use was made of bentazon at a polymer/active substance ratio of 1:1 and metazachlor at a polymer/active substance ratio of 10:1.

[6] = water buffered to pH 6.8 with hyperbranched polymer, 0.5 g polymer, 0.1 g compound, 100 ml water buffered to pH 6.8, stirred 24 h, HPLC/UV, read-out: Solubility in the presence of Polymer 5
[7] = water buffered to pH 6.8 with hyperbranched polymer, Solubility in the presence of Polymer 1, 0.5 g polymer, 0.1 g compound, 100 ml water buffered to pH 6.8, stirred 24 h, HPLC/UV

Compound: CN1C(C(=O)Nc2ccccn2)=C(O)c2ccccc2S1(=O)=O [Piroxicam]
- solubility ([1]; Solubility in the presence of Polymer 1, approx. 2 g polymer): 9200 µg/mL
- solubility ([1]; approx. 2 g polymer, read-out: Solubility in the presence of Polymer 3): 5300 µg/mL
- solubility at 24 h [2, 6]: 1110 µg/mL
- solubility at 24 h [2, 7]: 1020 µg/mL
- Water solubility (without polymer) [3]: 200 µg/mL
- Water solubility (without polymer) [4]: 420 µg/mL

Compound: Cc1cccc(C)c1N(Cn1cccn1)C(=O)CCl [Metazachlor]
- Assessment ([5]; Polymer from example 1, polymer/active substance ratio 10:1): 3
- Assessment ([5]; Polymer from example 6, polymer/active substance ratio 10:1): 3

Compound: N#Cc1nn(-c2c(Cl)cc(C(F)(F)F)cc2Cl)c(N)c1[S+]([O-])C(F)(F)F (centres unmarked) [Fipronil]
- solubility at 24 h ([2]; Solubility in the presence of Polymer 1): 448 µg/mL

Compound: CC(C)N1C(=O)c2ccccc2NS1(=O)=O [Bentazon]
- Assessment ([5]; Polymer from example 1, polymer/active substance ratio 1:1): 4
- Assessment ([5]; Polymer from example 6, polymer/active substance ratio 1:1): 4

Compound: NC(=O)N1c2ccccc2C=Cc2ccccc21 [Carbamazepine]
- solubility at 24 h [2, 6]: 190 µg/mL
- solubility at 24 h [2, 7]: 181 µg/mL
- solubility at 24 h ([2]; water buffered to pH 6.8 with hyperbranched polymer, Solubility in the presence of Polymer 4, 0.5 g polymer, 0.1 g compound, 100 ml water buffered to pH 6.8, stirred 24 h, HPLC/UV): 336 µg/mL
- Water solubility (without polymer) [3]: 120 µg/mL

Compound: CCOC(=O)/C(Cl)=C/c1cc(N2C(=O)C3=C(CCCC3)C2=O)ccc1Cl [Cinidon-ethyl]
- Solubility in the presence of Polymer 1 ([2]; 0.5 g polymer, 0.1 g compound, 100 ml water buffered to pH 6.8, stirred 24 h, HPLC/UV): 97 µg/mL
- Water solubility (without polymer) [3]: 0.057 µg/mL
